We go through eleven compounds from patent publication US6531308B2, “Ketoreductase gene and protein from yeast” (Eli Lilly and Company, priority 1997, dated 2003).

This test relates to wild-type ketoreductase from Z. rouxii (SEQ ID NO: 2). Put plainly: Reductase activity of Z. rouxii ketoreductase, substrate specificity (NADPH oxidation, absorbance at 340 nm). The format is biochemical. The method, then:
Reductase activity was measured using a suitable substrate and a partially purified or substantially purified ketoreductase from Z. rouxii. Activity was measured as a function of the absorbance change at 340 nm, resulting from the oxidation of NADPH. […] Reaction mixtures were first equilibrated at 26° C. for 10 min in the absence of NADPH, and then initiated by addition of NADPH. […] The kinetic parameters for 3,4-methylenedioxyphenyl acetone were determined at an NADPH concentration of 112 μM and a 3,4-methylenedioxyphenyl acetone concentration that varied from 1.7 mM -7.2 mM. The kinetic parameters for NADPH were determined by maintaining the 3,4-methylenedioxyphenyl acetone concentration at 3 mM and the NADPH concentration was varied from 20.5 μM-236.0 μM. An extinction coefficient of 6220 M^−1 cm^−1 for NADPH absorbance at 340 nm was used to calculate the specific activity of the enzyme. For assays using isatin, the change in absorbance with time was measured at 414 nm using an extinction coefficient of 849 M^−1 cm^−1 to calculate activity. One Unit of activity corresponds to 1 μmol of NADPH consumed per minute. For assays carried out at differing pH values, 10 mM Bis-Tris and 10 mM Tris were adjusted to the appropriate pH with HCl. Kinetic parameters were determined by non-linear regression using the JMP® statistics and graphics program.

The structures appear in SMILES notation.

With `CC1(C)[C@@H]2CC[C@@]1(C)C(=O)C2=O`, the “% Relative Activity” value (substrate concentration 5 mM) is listed as 32%. In the case of `CC(C)(CO)C(=O)C(=O)O`, the “% Relative Activity” value (substrate concentration 4 mM) is recorded as 37%. With `O=C1Nc2ccccc2C1=O`, where the note is “substrate concentration 0.8 mM”, the “% Relative Activity” value worked out at 86%. `CC(=O)CN1C(=O)c2ccccc2C1=O`: the “% Relative Activity” value (substrate concentration 0.6 mM) is recorded as 17%. For the compound `CC1(C)COC(=O)C1=O`, for the setting “substrate concentration 3 mM”, the “% Relative Activity” value turned out to be 194%. Turning to `CC(=O)Cc1ccc2c(c1)OCO2` [3,4-methylenedioxyphenyl acetone], the “% Relative Activity” value (substrate concentration 3 mM) turned out to be 100%. As for `CC(=O)CCc1ccccc1`, the “% Relative Activity” value (substrate concentration 0.6 mM) is 0%. On to `CCOC(=O)CC(=O)CCl`, for which the “% Relative Activity” value (substrate concentration 5 mM) was 42%. On the same count and under the same terms, then `CC1(C)[C@H]2CC[C@]1(C)C(=O)C2=O`, with 100%. For the compound `CC(=O)c1ccccc1`, the “% Relative Activity” value (substrate concentration 0.6 mM) came out at 4%. Take `CC(=O)CCc1ccc2c(c1)OCO2`: the “% Relative Activity” value (substrate concentration 5 mM) is 18%.
